# Assay results: PubChem BioAssay AID1963964 (Molecular Pharmacology Branch, DTP, NCI, 2024)
# Test system: 997726-040-R-J2-PDC tumor spheroids, viability
# Experiment: Anticancer human tumor 997726-040-R-J2-PDC patient-derived squamous cell lung carcinoma cell line growth inhibition [PI3K]
# Conditions: spheroids with HUVEC and MSC; for IC50: curve of first compound; for viability, T/C: stronger effect = lower value
# Summary of the method: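 Spheroid viability read-out. Co-cultures contained the tumor line plus HUVEC and human MSCs. Each agent was paired with a PI3K inhibitor (inavolisib, alpelisib, duvelisib, copanlisib) across half-log dilutions starting at clinical Cmax, or at 10 microM when Cmax was unknown.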
# 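Note: spheroids exposed to compounds for seven days before readout.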
structure (smiles),measurement,setting,value
CC1(C)CCC(Nc2ncc(C(F)(F)F)c(-c3c[nH]c4c(P(C)(C)=O)c(C#N)ccc34)n2)CN1 (configuration not stated) + Cc1nc(NC(=O)N2CCCC2C(N)=O)sc1-c1ccnc(C(C)(C)C(F)(F)F)c1,IC50,second compound 0.0316 µM,< 0.0316 µM
same,IC50,second compound 0.1 µM,< 0.0316 µM
same,IC50,second compound 0.316 µM,< 0.0316 µM
same,IC50,second compound 1 µM,< 0.0316 µM
same,IC50,second compound 3.16 µM,< 0.0316 µM
same,IC50,second compound 10 µM,< 0.0316 µM
same,"viability, T/C","second compound 0.0316 µM, first compound 0.0316 µM",36.8%
same,"viability, T/C","second compound 0.0316 µM, first compound 0.1 µM",27%
same,"viability, T/C","second compound 0.0316 µM, first compound 0.316 µM",30.7%
same,"viability, T/C","second compound 0.0316 µM, first compound 1 µM",29.5%
same,"viability, T/C","second compound 0.0316 µM, first compound 3.16 µM",28.8%
same,"viability, T/C","second compound 0.0316 µM, first compound 10 µM",5.15%
same,"viability, T/C","second compound 0.1 µM, first compound 0.0316 µM",27.4%
same,"viability, T/C","second compound 0.1 µM, first compound 0.1 µM",28.1%
same,"viability, T/C","second compound 0.1 µM, first compound 0.316 µM",27.4%
same,"viability, T/C","second compound 0.1 µM, first compound 1 µM",29.9%
same,"viability, T/C","second compound 0.1 µM, first compound 3.16 µM",29.9%
same,"viability, T/C","second compound 0.1 µM, first compound 10 µM",5.28%
same,"viability, T/C","second compound 0.316 µM, first compound 0.0316 µM",23.7%
same,"viability, T/C","second compound 0.316 µM, first compound 0.1 µM",21.8%
same,"viability, T/C","second compound 0.316 µM, first compound 0.316 µM",21.5%
same,"viability, T/C","second compound 0.316 µM, first compound 1 µM",24.9%
same,"viability, T/C","second compound 0.316 µM, first compound 3.16 µM",21.8%
same,"viability, T/C","second compound 0.316 µM, first compound 10 µM",2.81%
same,"viability, T/C","second compound 1 µM, first compound 0.0316 µM",16.4%
same,"viability, T/C","second compound 1 µM, first compound 0.1 µM",13.5%
same,"viability, T/C","second compound 1 µM, first compound 0.316 µM",16%
same,"viability, T/C","second compound 1 µM, first compound 1 µM",17.5%
same,"viability, T/C","second compound 1 µM, first compound 3.16 µM",18.1%
same,"viability, T/C","second compound 1 µM, first compound 10 µM",1.51%
same,"viability, T/C","second compound 3.16 µM, first compound 0.0316 µM",14.2%
same,"viability, T/C","second compound 3.16 µM, first compound 0.1 µM",11.1%
same,"viability, T/C","second compound 3.16 µM, first compound 0.316 µM",11.9%
same,"viability, T/C","second compound 3.16 µM, first compound 1 µM",12.9%
same,"viability, T/C","second compound 3.16 µM, first compound 3.16 µM",11.5%
same,"viability, T/C","second compound 3.16 µM, first compound 10 µM",1.02%
same,"viability, T/C","second compound 10 µM, first compound 0.0316 µM",7.35%
same,"viability, T/C","second compound 10 µM, first compound 0.1 µM",6.65%
same,"viability, T/C","second compound 10 µM, first compound 0.316 µM",6.01%
same,"viability, T/C","second compound 10 µM, first compound 1 µM",7.48%
same,"viability, T/C","second compound 10 µM, first compound 3.16 µM",6.58%
same,"viability, T/C","second compound 10 µM, first compound 10 µM",0.41%
